Source: PubChem BioAssay (NCI)
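Step 1: Grow cells in 96-well plates. Step 2: Expose to compound for 48 hours at 5 concentrations. Step 3: Interpolate endpoints linearly; if unreached, use highest concentration. Definition used: TGI = concentration required for complete inhibition of growth.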

Key:
Experiment in all cases: inhibition of tumour cell growth, NCI panel, 48 h
OVCAR-3 ovarian = system: OVCAR-3 ovarian
PC-3 prostate = system: PC-3 prostate
OVCAR-8 ovarian = system: OVCAR-8 ovarian
SF-539 CNS = system: SF-539 CNS
SK-MEL-5 melanoma = system: SK-MEL-5 melanoma
RPMI-8226 leukemia = system: RPMI-8226 leukemia
BT-549 breast = system: BT-549 breast
786-0 renal = system: 786-0 renal
CCRF-CEM leukemia = system: CCRF-CEM leukemia
UO-31 renal = system: UO-31 renal
M14 melanoma = system: M14 melanoma

SMILES | TGI (OVCAR-3 ovarian) | TGI (PC-3 prostate) | TGI (OVCAR-8 ovarian) | TGI (SF-539 CNS) | TGI (SK-MEL-5 melanoma) | TGI (RPMI-8226 leukemia) | TGI (BT-549 breast) | TGI (786-0 renal) | TGI (CCRF-CEM leukemia) | TGI (UO-31 renal) | TGI (M14 melanoma)
O=C1/C(=C/c2ccc(O)cc2)CCc2ccccc21 | 52.7 µM | 39.2 µM | 73.5 µM | 38.4 µM | 32.5 µM | 34.9 µM | 41.4 µM | 39.1 µM | 10.9 µM | 47.9 µM | 36.6 µM
COc1cc(C2c3cc4c(cc3OC(O)C2C)OCO4)cc(OC)c1O (stereo unspecified) | 27.4 µM | > 100 µM | > 100 µM | 30.6 µM | > 51.6 µM | > 100 µM | > 100 µM | > 100 µM | > 100 µM | > 96.5 µM | > 60 µM
CC(C)C(/C=C/c1ccc(Cl)cc1)=N\NC(=S)NN | 78 µM | > 100 µM | > 100 µM | > 100 µM | > 100 µM | > 100 µM | > 100 µM | > 100 µM | 13.7 µM | > 100 µM | > 100 µM
O=C1c2cccnc2-c2nccc3ccnc1c23 | 1.49 µM | 3.45 µM | 2.17 µM | 4.81 µM | 1.84 µM | 0.894 µM | 2.78 µM | 2.04 µM | 0.156 µM | 3.16 µM | 2.43 µM
CC1=C/C(=C(/c2ccc(O)c(C)c2)c2ccccc2C(=O)O)C=CC1=O | 33.2 µM | 35.9 µM | 36.3 µM | 35.2 µM | 34.9 µM | 46 µM | 39 µM | 33.7 µM | 45.1 µM | 33.6 µM | 32.5 µM
CC(=O)O[C@H]1C(=O)[C@@]2(C)[C@H]([C@H](OC(=O)c3ccncc3)[C@]3(O)C[C@H](OC(=O)[C@H](O)[C@@H](NC(=O)c4ccccc4)c4ccccc4)C(C)=C1C3(C)C)[C@]1(OC(C)=O)CO[C@@H]1C[C@@H]2O | > 18.5 µM | > 21 µM | > 25 µM | 4.55 µM | > 22 µM | 6.5 µM | > 25 µM | > 25 µM | 10.7 µM | > 25 µM | > 25 µM
CCCCC/C(=N\c1nc[nH]c1C(N)=O)OCC | > 100 µM | > 100 µM | > 100 µM | > 100 µM | > 100 µM | > 100 µM | > 100 µM | > 100 µM | > 100 µM | > 100 µM | > 100 µM
Nc1nc(Cl)cc(NCC2(CO)CC(Cc3ccccc3)C2)n1 (stereo unspecified) | > 100 µM | > 90.8 µM | > 100 µM | > 100 µM | > 41.9 µM | > 62.9 µM | > 80.5 µM | > 100 µM | > 100 µM | > 100 µM | 37.1 µM
Cc1ccc(C(=O)Nc2ccc(CP(=O)(O)O)cc2)cc1NC(=O)Nc1cc(C(=O)Nc2ccc(CP(=O)(O)O)cc2)ccc1C | > 100 µM | > 100 µM | > 100 µM | > 100 µM | > 100 µM | > 100 µM | > 100 µM | > 100 µM | > 100 µM | > 100 µM | > 100 µM
N#C/C(N)=C(\C#N)N=CNc1ccccc1N | > 100 µM | > 100 µM | > 100 µM | > 100 µM | > 100 µM | > 100 µM | > 100 µM | > 100 µM | > 100 µM | > 100 µM | > 100 µM
Cc1c(C)c2ccc(O)cc2[nH]c1=O | > 100 µM | > 100 µM | > 100 µM | > 100 µM | > 100 µM | > 100 µM | > 100 µM | > 100 µM | > 100 µM | > 100 µM | > 100 µM
c1ccc(-c2cc(-c3cc(-c4ccccc4)no3)on2)cc1 | > 100 µM | > 100 µM | 30.2 µM | 33.4 µM | > 100 µM | > 100 µM | > 100 µM | > 100 µM | 78.8 µM | > 100 µM | > 100 µM
N=C(N)c1ccc(-c2ccc(-c3ccc(C(=N)N)cc3)o2)cc1 | > 100 µM | > 100 µM | > 100 µM | > 100 µM | 33 µM | > 100 µM | > 100 µM | 59.7 µM | > 100 µM | 68.1 µM | > 100 µM
CCNC(=O)Cc1nc2c(=O)[nH]cnc2n1C1OC(CO)C(O)C1O (stereo unspecified) | > 100 µM | > 100 µM | > 100 µM | > 100 µM | > 100 µM | > 100 µM | > 100 µM | > 100 µM | > 100 µM | > 100 µM | > 100 µM
CCOC(=O)C1C(=O)CC(C)(O)C(C(=O)OCC)C1c1ccc(OC)cc1 (stereo unspecified) | > 100 µM | > 100 µM | > 100 µM | > 100 µM | > 100 µM | > 100 µM | > 100 µM | > 100 µM | > 100 µM | > 100 µM | > 100 µM
O=C(NC1CCN(Cc2ccccc2)CC1)c1ccccc1I | > 100 µM | 98.8 µM | > 100 µM | 63.1 µM | 31 µM | > 100 µM | > 100 µM | 63.4 µM | 86.2 µM | 30.1 µM | 33.4 µM

SMILES | TGI (OVCAR-3 ovarian) | TGI (PC-3 prostate) | TGI (OVCAR-8 ovarian) | TGI (SF-539 CNS) | TGI (SK-MEL-5 melanoma) | TGI (RPMI-8226 leukemia) | TGI (BT-549 breast) | TGI (786-0 renal) | TGI (CCRF-CEM leukemia) | TGI (UO-31 renal) | TGI (M14 melanoma)
C(=N/Nc1ccccn1)/c1cccnc1 | > 100 µM | > 100 µM | > 100 µM | > 100 µM | > 100 µM | > 100 µM | > 100 µM | > 100 µM | > 100 µM | > 100 µM | > 100 µM
Cc1cc2nc3c(C#N)c(-c4ccccc4)cc(Nc4cccc(C(F)(F)F)c4)n3c2cc1C | 8.41 µM | 16 µM | > 100 µM | 13.6 µM | 19.8 µM | > 100 µM | > 100 µM | 18.6 µM | > 100 µM | 25.8 µM | 60.3 µM
Nc1nc(Cl)cc(NCC2(CO)CCC(OCc3ccccc3)C2)n1 (stereo unspecified) | > 100 µM | 33 µM | > 100 µM | > 100 µM | 18.8 µM | > 100 µM | 80.1 µM | > 100 µM | > 100 µM | 99.4 µM | 61 µM
CCOC(=O)C(SCCO)C(C(=O)OCC)n1cc(C)c(=O)[nH]c1=O (stereo unspecified) | 51.7 µM | 34.6 µM | > 62.7 µM | > 65.3 µM | > 70.6 µM | 44.4 µM | > 85.1 µM | 15.6 µM | 8.1 µM | > 62.8 µM | 25 µM
Cn1c(=O)c2c(nc3sc4ncccc4c(=O)n32)n(C)c1=O | > 100 µM | > 100 µM | > 100 µM | > 100 µM | > 100 µM | > 100 µM | > 100 µM | > 100 µM | > 100 µM | > 100 µM | > 100 µM
CC[C@]12C=CCN3CCC4(c5cc(N=Nc6ccc([N+](=O)[O-])cc6)c(OC)cc5N(C)[C@H]4[C@@](O)(C(=O)OC)[C@@H]1OC(C)=O)[C@@H]32 (stereo partly specified) | 16.8 µM | 46.1 µM | > 100 µM | 45.8 µM | 50.1 µM | 46.1 µM | > 100 µM | 25.1 µM | 26.6 µM | 25.9 µM | 40.5 µM
CCC(C)(C)c1ccc(Oc2cccc(C(=O)O)c2)cc1 | 70.1 µM | > 100 µM | > 100 µM | > 100 µM | > 100 µM | 65.4 µM | > 100 µM | > 100 µM | 68 µM | > 100 µM | > 100 µM
N=c1c2ccccc2nc2oc3ccc(Cl)cc3n12 | 31.4 µM | > 100 µM | 69.1 µM | 32 µM | > 100 µM | 23.5 µM | > 100 µM | 15.9 µM | > 100 µM | 32.9 µM | 56.9 µM
CN(CCNC(=O)c1cc(-c2ccccc2)nc2ccccc12)CCNC(=O)c1cc(-c2ccccc2)nc2ccccc12 | > 100 µM | > 100 µM | > 100 µM | 21.3 µM | 5.7 µM | > 100 µM | > 100 µM | 23.5 µM | > 100 µM | > 100 µM | 4.66 µM
C/C(=C\[C@H]1C[C@@H]([C@@H]2CC[C@]34C[C@]23C=C[C@@H]2[C@@]3(C)CC=C5C[C@@H](c6ccccc6)OC[C@]5(C)[C@@H]3C[C@@H](O)[C@]24C)C(=O)O1)CO | > 100 µM | > 55.6 µM | > 100 µM | 35.1 µM | 2.76 µM | > 96.4 µM | 98.6 µM | > 100 µM | > 100 µM | 9.54 µM | > 100 µM
O=c1[nH][nH]c(=S)c(=O)[nH]1 | > 100 µM | > 100 µM | > 100 µM | > 100 µM | > 100 µM | > 100 µM | > 100 µM | > 100 µM | > 100 µM | > 100 µM | > 100 µM
Clc1ccc(CSCc2ccc(Cl)cc2Cl)c(Cl)c1 | > 100 µM | > 100 µM | > 100 µM | > 100 µM | 97.9 µM | 88.6 µM | > 100 µM | > 100 µM | 51.7 µM | > 100 µM | > 100 µM
Cc1ccc(S(=O)(=O)N/N=C2/CC[C@H](C(C)(C)C)C[C@@H]2C)cc1 | 25.2 µM | 36.8 µM | 29.9 µM | 32.5 µM | 26.8 µM | > 100 µM | 29.8 µM | 31.8 µM | 38.8 µM | 26.6 µM | 26.6 µM
CC1(c2nc3cc(Cl)c(Cl)cc3[nH]2)CCC(C(=O)O)C(C)(C)O1 (stereo unspecified) | > 100 µM | > 100 µM | > 100 µM | > 100 µM | > 100 µM | > 100 µM | > 100 µM | > 100 µM | > 100 µM | > 100 µM | > 100 µM
Cc1ccc2nc(Cl)c(/C=N/N3C(=O)/C(=C/Cc4ccco4)N=C3c3ccccc3)cc2c1 | > 100 µM | > 100 µM | > 68.2 µM | 88.4 µM | > 100 µM | 61.8 µM | > 90.9 µM | 47.3 µM | > 100 µM | > 74.7 µM | 73.9 µM
